Measurements published in patent US20210275545A1, “METHOD OF TREATING CANCER PREFERABLY CHARACTERIZED BY EXPRESSION OF A FUSION PROTEIN COMPRISING A MEMBER OF THE E-TWENTY-SIX FAMILY BY ADMINISTERING AN AGENT THAT INHIBITS THE SYNTHESIS AND/OR ACTIVITY OF CORTISOL” (Yeda Research and Development Co. Ltd., priority 2018, published 2021).

How the values were obtained:
GR and ERG [1] = target: T1, GR and ERG (Homo sapiens, UniProt P04150)
Protocol: (§1) (A) The scheme presents the full length Gaussia luciferase protein, along with either the amino-terminal segment (Gluc1), which was fused to an ETS family transcription factor, or the carboxyl terminal segment (Gluc2), which was fused to GR. Amino acid numbers are indicated. cDNAs encoding most members of the ETS family (16 members altogether) were cloned downstream to Gluc1. […] (B) HEK-293T cells (6×10^3) were seeded in 96-well plates. On the next day, cells were transfected with combinations of the Gluc1 plasmid, encoding a fused ETS family member, and the Gluc2 plasmid encoding a fused full-length GR. […] Cells were then lysed and luminescence was determined in biological triplicates. […] (D and E) HEK-293T cells were seeded in 100-mm dishes. Once they reached sub-maximal density (70%), cells were starved overnight for serum factors. […] Cell extracts were then processed for co-immunoprecipitation assays, in which the endogenous FLI1 or ERG protein was immunoprecipitated using a specific antibody, and immunoblotting was performed using an antibody against GR. EB, empty beads; C, solvent control. Images shown are representative of three biological replicates.
(A) HEK-293T cells (6×10^3) were seeded in 96-well plates. On the next day, the cells were transfected with combinations of the Gluc1 plasmid, encoding fused FLI1 or ERG, and the Gluc2 plasmid encoding GR. […] Cells were then lysed and luminescence was determined in each sample. Luminescence of vehicle-treated cells was used for normalization. […] (B) HEK-293T cells were seeded on coverslips in 6-well plates. […] Images were processed using the Zeiss ZEN2011 software. […] Bars, 20 μm.
Protein-fragment complementation assays (PCA): PCA was performed as previously described.

MR and ERG = target: T2, MR and ERG (Homo sapiens, UniProt P08235); assay: PCA, Gluc1-ERG + MR-Gluc2; format: cell-based; settings: DEX 1 μM, 60 minutes
T2 construct: expressed in transfected cells; host or cells: HEK-293T
T2 sequence (P08235 1-984): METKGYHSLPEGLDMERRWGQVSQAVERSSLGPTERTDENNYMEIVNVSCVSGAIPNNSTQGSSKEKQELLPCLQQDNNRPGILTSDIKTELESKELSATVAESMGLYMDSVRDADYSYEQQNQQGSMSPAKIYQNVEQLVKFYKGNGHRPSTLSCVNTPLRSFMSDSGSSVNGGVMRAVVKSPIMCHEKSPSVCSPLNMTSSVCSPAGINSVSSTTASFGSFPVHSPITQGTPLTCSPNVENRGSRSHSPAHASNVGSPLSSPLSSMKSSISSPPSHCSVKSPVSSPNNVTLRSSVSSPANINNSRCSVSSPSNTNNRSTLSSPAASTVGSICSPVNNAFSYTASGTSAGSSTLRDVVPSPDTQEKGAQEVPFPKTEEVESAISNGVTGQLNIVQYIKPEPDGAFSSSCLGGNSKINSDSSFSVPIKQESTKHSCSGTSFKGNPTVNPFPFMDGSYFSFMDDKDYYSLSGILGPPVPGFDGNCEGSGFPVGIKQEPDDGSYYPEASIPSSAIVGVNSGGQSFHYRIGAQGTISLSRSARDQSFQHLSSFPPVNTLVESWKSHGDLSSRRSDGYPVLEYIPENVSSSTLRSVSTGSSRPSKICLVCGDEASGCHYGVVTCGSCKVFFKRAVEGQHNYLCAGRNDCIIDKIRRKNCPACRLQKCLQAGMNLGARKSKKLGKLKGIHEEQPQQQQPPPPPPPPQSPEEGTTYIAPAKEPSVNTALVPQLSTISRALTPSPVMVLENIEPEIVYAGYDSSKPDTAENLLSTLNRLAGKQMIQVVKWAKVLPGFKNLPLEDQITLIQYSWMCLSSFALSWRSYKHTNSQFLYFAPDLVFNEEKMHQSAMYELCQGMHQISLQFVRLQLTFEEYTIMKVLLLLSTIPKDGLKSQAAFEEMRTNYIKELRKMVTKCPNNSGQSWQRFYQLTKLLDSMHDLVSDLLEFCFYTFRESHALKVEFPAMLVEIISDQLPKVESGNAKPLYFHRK
T2 sequence (P11308 1-486 isoform P11308-3 partner): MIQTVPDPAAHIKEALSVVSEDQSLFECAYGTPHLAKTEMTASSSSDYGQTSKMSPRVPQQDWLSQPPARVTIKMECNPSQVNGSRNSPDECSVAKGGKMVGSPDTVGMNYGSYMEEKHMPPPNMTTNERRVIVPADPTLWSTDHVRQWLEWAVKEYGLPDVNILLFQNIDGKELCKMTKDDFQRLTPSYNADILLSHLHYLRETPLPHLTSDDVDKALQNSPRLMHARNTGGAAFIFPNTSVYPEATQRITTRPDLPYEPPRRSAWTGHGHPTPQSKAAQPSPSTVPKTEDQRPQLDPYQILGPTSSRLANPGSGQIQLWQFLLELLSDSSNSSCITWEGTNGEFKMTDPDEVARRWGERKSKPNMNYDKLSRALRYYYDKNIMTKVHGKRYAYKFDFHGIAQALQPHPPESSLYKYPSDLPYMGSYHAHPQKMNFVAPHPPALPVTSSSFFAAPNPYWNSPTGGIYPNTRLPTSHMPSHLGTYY
Protocol: Cells were then lysed and luminescence was determined.

GR and ERG [2] = target: T1, GR and ERG; remark: listed apart in the source
Protocol: as §1
Proximity ligation assay (PLA), extraction of cells, co-immunoprecipitation and cell migration/invasion assays: These assays were performed exactly as recently reported.

[3] = tested on: glucocorticoid response element (GRE); settings: naïve cells, endogenous GR; 100 nM, 24 hours
Protocol: HEK-293T cells (1.2×10^4) were seeded in 48-well plates. […] In addition, cells were co-transfected with increasing amounts of a GR expression vector (A), a FLI1-encoding vector (B) or with a combination of both a FLI1 vector and a vector encoding GR, either wild type (C) or a mutant receptor (GRdim−, panel D). Luciferase activity was determined, in biological triplicates, 48 hours later and presented in bar plots. Cells that were pre-transfected with the reporter plasmid were used for normalization. *, p≤0.05; ***, p≤0.001. […] This was followed by cell lysis and determination of luciferase activity in biological triplicates.
Luciferase-reporter assays: Cells were co-transfected with a luciferase plasmid containing the consensus glucocorticoid response element (GRE) along with pGL3-Control (Promega, Madison, Wis.). Luciferase activity was determined using the dual-luciferase reporter assay system (Promega). Firefly luciferase luminescence values were normalized to Renilla luminescence.

A673 xenograft = A673 xenograft tumor growth; format: in vivo, SCID mice; settings: 25 mg/kg daily
From the text: FIGS. 6A-E. A GR antagonist and a cortisol-lowering drug impede growth of human xenograft models of Ewing's sarcoma. (A) RD-ES cells (2×10^6) were implanted subcutaneously in the right flank of SCID mice. […] The means of tumor volumes (+SEM) are shown. […] (B) Shown are representative images of immunofluorescent staining for KI67 in paraffin-embedded sections of tumors from A, using an antibody against KI67. Scale bars, 100 μm. Also shown is the scatter plot depicting quantification of KI67 staining in randomly selected 4 fields of a representative tumor from each group. […] (C and D) A673 cells (2×10^6) were implanted in female SCID mice. […] Each group was daily treated with either vehicle, or Metyrapone (25 mg/kg) and tumorigenic growth was monitored. Actual tumor volumes (±SEM) are presented. Also shown are tumors harvested from each group of animals; **p<0.001. (E) TC-71 cells (10^6) engineered to stably express luciferase were injected into the tibia of female SCID mice (5 weeks old; 7 mice per group). […] The control group was similarly treated with the solvent (0.1% tween 80). When the primary tumor reached 10% of body weight, the lungs were excised and examined for metastasis using luciferase bioluminescence imaging. […] Luminescence was quantified and presented in a bar graph. […] Tumor growth was monitored once every 3 days using a caliper. […]

A673 tumors = assay: Immunoblotting of A673 tumor extracts; format: in vivo, SCID mice
Protocol: FIGS. 13A-B: A GR antagonist and a cortisol-lowering drug induce markers of cell death in animal models of Ewing's sarcoma. (A) RD-ES tumors presented in FIG. 6A were extracted and analyzed using immunoblotting and the indicated antibodies. Note that tumors from three different mice per group were analyzed. (B) Whole extracts prepared from the tumors presented in FIG. 6D were analyzed using immunoblotting and the indicated antibodies. Note that tumors from three different mice per group were analyzed.
ES animal model studies: All animal experiments were approved by the Weizmann Institute's Animal Care and Use Committee. RD-ES cells and A673 cells (2.5×10^6) were inoculated subcutaneously in the right legs of female SCID mice (6 weeks old). Tumor growth was monitored once every 3 days using a caliper. […] Mice were euthanized when tumor size reached 800-900 mm^3. For metastasis assays, luciferase-labeled TC-71 cells (10^6) were injected orthotopically into the tibia of female SCID mice. Once the primary tumor reached the allowed size limit, we excised the lungs and examined metastases using luciferase bioluminescence imaging.

T1 sequence (P04150 whole entry, the tested form may be a part): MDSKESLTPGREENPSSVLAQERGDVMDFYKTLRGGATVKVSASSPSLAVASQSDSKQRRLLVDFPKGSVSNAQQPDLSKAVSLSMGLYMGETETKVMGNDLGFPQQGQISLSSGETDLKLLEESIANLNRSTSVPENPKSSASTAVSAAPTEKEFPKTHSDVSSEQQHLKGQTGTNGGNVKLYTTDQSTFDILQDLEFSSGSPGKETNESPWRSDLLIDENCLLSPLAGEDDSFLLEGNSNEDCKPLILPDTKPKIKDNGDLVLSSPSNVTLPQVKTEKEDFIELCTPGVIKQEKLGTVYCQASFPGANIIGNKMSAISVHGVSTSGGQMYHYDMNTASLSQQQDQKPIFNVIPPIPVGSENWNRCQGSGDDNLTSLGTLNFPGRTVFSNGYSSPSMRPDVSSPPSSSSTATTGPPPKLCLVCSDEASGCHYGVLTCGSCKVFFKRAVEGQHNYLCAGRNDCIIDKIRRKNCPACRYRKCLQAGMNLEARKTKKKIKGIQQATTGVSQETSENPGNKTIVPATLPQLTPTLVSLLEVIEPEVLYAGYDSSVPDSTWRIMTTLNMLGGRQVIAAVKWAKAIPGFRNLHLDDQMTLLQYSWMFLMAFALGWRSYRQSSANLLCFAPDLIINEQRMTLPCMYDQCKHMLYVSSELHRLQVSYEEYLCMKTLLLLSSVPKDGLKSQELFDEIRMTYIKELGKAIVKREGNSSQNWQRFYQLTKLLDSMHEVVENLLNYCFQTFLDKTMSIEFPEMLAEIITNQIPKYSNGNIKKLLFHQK

SMILES | luciferase activity (PCA), GR-ERG interaction (GR and ERG [1]) | time of peak of GR-ERG signals after stimulation (PCA) (GR and ERG [1]) | interaction between MR and ERG (PCA) (MR and ERG) | co-immunoprecipitation of GR and ERG (GR and ERG [2]) | increase of GRE activity (luciferase) [3] | tumor growth rates (A673 xenograft) | γH2AX in tumors (A673 tumors)
C[C@@H]1C[C@H]2[C@@H]3CCC4=CC(=O)C=C[C@]4(C)[C@@]3(F)[C@@H](O)C[C@]2(C)[C@@]1(O)C(=O)CO [DEX, dexamethasone] | highly significant increases | peaked earlier | stimulated strong interactions | enhanced | 40 fold | – | –
CC(C)(C(=O)c1cccnc1)c1cccnc1 [metyrapone] | – | – | – | – | – | clear and statistically significant decrease | elevated
